Tested on: chronic constriction injury (CCI) of the sciatic nerve, rats
Assay: Cold allodynia (acetone application) in chronic constriction injury model
Type: in vivo, rat
Conditions: neuropathic pain model as disclosed in Example 2
Experimental: Unilateral sciatic nerve injury was produced under deep anesthesia with i.p injection of sodium pentobarbital (Mebumal, 60 mg/kg), as described by Bennett and Xie (Pain, 33, 87-107(1988)). The common sciatic nerve was exposed and freed for about 10 mm at mid-thigh level. Four ligatures (Ethicon, 4.0 plain gut) were tied loosely around the nerve with about 1-mm spacing creating a chronic constriction injury (CCl), and the incision was closed.
Brisk foot withdrawal in response to acetone application was measured based on the method described by Choi et al. The acetone bubble was gently brought in touch with the plantar surface around the center, and the acetone quickly spread over the central part of the plantar surface of the foot. Applications were made five times (once every 5 min) to each paw. The score for each application was recorded as follows: foot withdrawal was scored as positive (1) and lack of withdrawal as negative (O). The total score (0 to 5) was taken as index for cold sensitivity of the foot […]. This approximates pain from a non-noxious stimulus, i.e. allodynia.
Cold allodynia response was measured 15, 30, 45, 60, 90 and 120 minutes after i.p. administration of ganaxolone (at 1 mg/kg, 3 mg/kg or 10 mg/kg) as well as prior to administration of the neurosteroid and prior to infliction of the neural injury. Table 1 provides the resulting measurement of cold allodynia response in groups of six rats per dosage level. The abbreviation “s.e.m.” means standard error mean.

C[C@]12CC[C@@H](O)C[C@@H]1CC[C@H]1[C@@H]3CC[C@H](C(=O)CO)[C@@]3(C)CC(=O)[C@@H]12 [Alphadolone, reference compound]
Activity in the neuropathic pain model: inactive

Reference: patent US20060009432A1, “Use of neurosteroids to treat neuropathic pain” (priority 2004, published 2006)
